The record followed here is ChEMBL document CHEMBL1153316, “Selectivity profiling of DegP substrates and inhibitors” (Bioorg Med Chem, 2009).

Experiment [1] is described as follows: Inhibition of trypsin assessed as residual proteolytic activity at 0.5 mM.
The nature of experiment [2]: Inhibition of elastase assessed as residual proteolytic activity at 0.5 mM.
Experiment [3] addresses Prothrombin (Homo sapiens) (UniProt P00734). Description: Inhibition of thrombin assessed as residual proteolytic activity at 0.5 mM.
The target in experiment [4] is Plasminogen (Homo sapiens) (UniProt P00747). Put plainly: Inhibition of plasmin assessed as residual proteolytic activity at 0.5 mM.
Experiment [5] is described as follows: Inhibition of chymotrypsin assessed as residual proteolytic activity at 0.5 mM.
The subject of experiment [6] is Escherichia coli. Description: Inhibition of Escherichia coli degP assessed as residual proteolytic activity at 0.5 mM.
Experiment [7] can be described thus: Inhibition of kallikrein assessed as residual proteolytic activity at 0.5 mM.
Experiment [8] in a line: Inhibition of subtilisin assessed as residual proteolytic activity at 0.5 mM.
Experiment [9] is described as follows: Inhibition of Escherichia coli degP.
Experiment [10] in a line: Inhibition of subtilisin.
The nature of experiment [11]: Inhibition of elastase.
The test system of experiment [12] is Escherichia coli. Description: Inhibition of Escherichia coli degP assessed as specific activity at 0.5 mM. Further details: scale not given: the % may be the effect or the level left.
The target in experiment [13] is Prothrombin (Homo sapiens) (UniProt P00734). Put plainly: Inhibition of thrombin assessed as specific activity at 0.5 mM. Further details: scale not given: the % may be the effect or the level left.
The nature of experiment [14]: Inhibition of chymotrypsin assessed as specific activity at 0.5 mM. Further details: scale not given: the % may be the effect or the level left.
In experiment [15] the test system is Escherichia coli. Put plainly: Activity at Escherichia coli degP.
In experiment [16] the target is Plasminogen (Homo sapiens) (UniProt P00747). Description: Inhibition of plasmin assessed as specific activity at 0.5 mM. Details: scale not given: the % may be the effect or the level left.
Experiment [17] in a line: Inhibition of kallikrein assessed as specific activity at 0.5 mM. Details: scale not given: the % may be the effect or the level left.
Experiment [18] in a line: Inhibition of trypsin assessed as specific activity at 0.5 mM. Details: scale not given: the % may be the effect or the level left.
A short description of experiment [19]: Inhibition of subtilisin assessed as specific activity at 0.5 mM. Further details: scale not given: the % may be the effect or the level left.
Experiment [20] is described as follows: Inhibition of elastase assessed as specific activity at 0.5 mM. Further details: scale not given: the % may be the effect or the level left.

pIC50: −log10 of the molar value. Peptide text beside a SMILES is read from it. Some results are limits rather than exact numbers.

Sequence of Plasminogen (Homo sapiens) (P00747 97-580 limits assumed): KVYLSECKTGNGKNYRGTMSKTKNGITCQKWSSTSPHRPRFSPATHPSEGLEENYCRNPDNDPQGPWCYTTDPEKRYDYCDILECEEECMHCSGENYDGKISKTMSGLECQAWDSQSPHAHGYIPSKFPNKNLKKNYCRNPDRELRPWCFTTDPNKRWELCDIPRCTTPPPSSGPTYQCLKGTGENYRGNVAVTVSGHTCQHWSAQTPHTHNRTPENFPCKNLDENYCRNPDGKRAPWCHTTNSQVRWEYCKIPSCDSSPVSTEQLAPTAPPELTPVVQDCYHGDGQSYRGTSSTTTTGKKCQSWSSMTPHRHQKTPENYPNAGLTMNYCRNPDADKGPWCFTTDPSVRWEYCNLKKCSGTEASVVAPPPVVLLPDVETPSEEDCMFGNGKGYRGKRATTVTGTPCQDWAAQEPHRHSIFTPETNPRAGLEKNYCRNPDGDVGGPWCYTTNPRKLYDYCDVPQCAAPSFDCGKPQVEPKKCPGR
Sequence of Plasminogen (Homo sapiens) (P00747 581-810 limits assumed): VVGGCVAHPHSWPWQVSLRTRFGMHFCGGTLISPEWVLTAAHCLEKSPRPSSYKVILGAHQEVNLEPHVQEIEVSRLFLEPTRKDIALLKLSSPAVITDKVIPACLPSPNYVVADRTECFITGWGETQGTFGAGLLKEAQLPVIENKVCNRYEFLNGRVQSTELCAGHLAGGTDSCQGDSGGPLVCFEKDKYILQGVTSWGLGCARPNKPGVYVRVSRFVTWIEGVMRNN

Regarding `CSCC[C@H](NC(=O)[C@H](CCSC)NC(=O)[C@@H]1CCCN1C(=O)[C@H](CC(C)C)NC(=O)[C@@H](NC(=O)[C@H](CC(N)=O)NC(=O)[C@H](Cc1ccccc1)NC(=O)[C@@H](N)C(C)C)[C@@H](C)O)C(=O)NCC(=O)N[C@@H](CCCCN)C(=O)N[C@@H](C)C(=O)N[C@@H](CO)C(=O)N1CCC[C@H]1C(=O)N[C@H](C(=O)CCl)C(C)C` (HELM PEPTIDE1{V.F.N.T.L.P.M.M.G.K.A.S.P.V.[ClC[*:1]]}$$$$V2.0), the Activity was 287% in experiment [1]; under 1% in experiment [2]; 102% in experiment [3]; 75% in experiment [4]; 22% in experiment [5]; 57% in the experiment with Escherichia coli [6]. In addition, the Activity in experiment [7] came out at 88%; in experiment [8], 155%.
With `CC(C)[C@H](NC(=O)[C@H](CCCNC(=N)N)NC(=O)CNC(=O)[C@@H](N)CO)C(=O)N[C@H](C(=O)N1CCC[C@H]1C(=O)NCC(=O)N[C@@H](Cc1ccc(O)cc1)C(=O)NCC(=O)N[C@@H](Cc1cnc[nH]1)C(=O)N[C@@H](C)C(=O)CCl)C(C)C` (HELM PEPTIDE1{S.G.R.V.V.P.G.Y.G.H.A.[ClC[*:1]]}$$$$V2.0), the Activity in experiment [1] amounted to 285%; in experiment [2], 83%; in experiment [3] it was 131%; in experiment [4], 62%; in experiment [5], 69%; in the experiment on Escherichia coli [6], 102%. Also, the Activity worked out at 135% in experiment [7] and 15% in [8].
For orientation: pIC50 means the negative decadic logarithm of the IC50, by convention in mol/L. With `CSCC[C@H](NC(=O)[C@@H]1CCCN1C(=O)[C@@H](N)CO)C(=O)N[C@@H](Cc1ccccc1)C(=O)N[C@@H](CCCCN)C(=O)NCC(=O)N[C@H](C(=O)CCl)C(C)C` (HELM PEPTIDE1{S.P.M.F.K.G.V.[ClC[*:1]]}$$$$V2.0), the Activity is 354% in experiment [1]; under 1% in experiment [2]; 96% in experiment [3]; 81% in experiment [4]; 92% in [5]; 3% in the experiment on Escherichia coli [6]. Also, the Activity in experiment [7] is 101%; in experiment [8], under 1%. In addition, the pIC50 in [9] is 4.12; in experiment [10] it was 9.00; in experiment [11], 3.66.
Consider `CSCC[C@H](NC(=O)[C@H](CCSC)NC(=O)[C@@H]1CCCN1)C(=O)NCC(=O)N[C@@H](CCCCN)C(=O)N[C@@H](C)C(=O)N[C@@H](CO)C(=O)N1CCC[C@H]1C(=O)N[C@H](C(=O)CCl)C(C)C` (HELM PEPTIDE1{P.M.M.G.K.A.S.P.V.[ClC[*:1]]}$$$$V2.0), for which the Activity in experiment [1] was 348%; in [2], under 1%; in experiment [3], 122%; in experiment [4], 71%; in experiment [5] it was 53%; in the experiment with Escherichia coli [6], 49%. In addition, the Activity in experiment [7] came to 108%; in experiment [8], 5%.
What is called Km is the substrate concentration at which the rate is half of its maximum. As a reminder, the Vmax is the rate approached at saturating substrate. For the compound `CSCC[C@H](NC(=O)[C@@H]1CCCN1C(=O)[C@@H](N)CC(=O)O)C(=O)N[C@@H](Cc1ccccc1)C(=O)N[C@@H](CCCCN)C(=O)N[C@@H](CC(C)C)C(=O)N[C@H](C(=O)Nc1ccc([N+](=O)[O-])cc1)C(C)C` (HELM PEPTIDE1{D.P.M.F.K.L.V.[O=[N+]([O-])c1ccc(N[*:1])cc1]}$$$$V2.0), the Activity is 473% in the experiment on Escherichia coli [12]; under 1% in experiment [13]; under 1% in [14]; under 1% in [16]; under 1% in experiment [17]; under 1% in experiment [18]. Further, the Activity is 1% in [19] and 4% in [20]. In the experiment with Escherichia coli [15], the Km came to 600 µM. For the same compound, the Vmax in the experiment on Escherichia coli [15] amounted to 1.2 µmol/min.
